Data from patent US20250304644A1, “PEPTIDES TRIPLE AGONISTS OF GIP, GLP-1 AND GLP-2” (BAINAN BIOTECH APS, priority 2021, published 2025).
Read-outs that look alike come from different tables or passages of the source. *1 amine or outer side, *2 acyl side, *3 side chain or, on linkers, in order; H or OH if unused. Where no end group is shown, it is not given here. Side-chain parts run from the residue outwards. [ ]: non-standard residue; d: D form. The star is where a group is joined. C18 diacid = O=C(O)CCCCCCCCCCCCCCCCC(=O)*; γGlu = O=C(O)[C@H](CCC(=O)[*:2])N[*:1]; AEEA = NCCOCCOCC(=O)O; Aib = CC(C)(N)C(=O)O

Experiments:
Format in all cases: cell-based
human GLP-1R = target: T1, human GLP-1R (Homo sapiens, UniProt P43220); test: cAMP assay (HitHunter) in transiently transfected COS-7 cells expressing human GLP-1R
T1 construct: host or cells: COS-7
T1 sequence (P43220 24-463): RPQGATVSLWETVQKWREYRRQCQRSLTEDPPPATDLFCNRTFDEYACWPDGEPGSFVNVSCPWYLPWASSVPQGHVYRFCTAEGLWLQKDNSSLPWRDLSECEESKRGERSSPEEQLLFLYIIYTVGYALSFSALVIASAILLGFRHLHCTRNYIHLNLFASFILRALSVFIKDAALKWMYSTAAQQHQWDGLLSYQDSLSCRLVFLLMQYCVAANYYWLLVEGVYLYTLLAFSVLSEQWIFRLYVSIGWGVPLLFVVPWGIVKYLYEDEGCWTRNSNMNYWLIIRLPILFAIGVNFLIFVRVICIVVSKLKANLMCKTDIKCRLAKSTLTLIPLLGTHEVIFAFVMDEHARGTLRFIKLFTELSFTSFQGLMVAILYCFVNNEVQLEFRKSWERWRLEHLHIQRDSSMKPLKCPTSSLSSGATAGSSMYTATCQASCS

human GLP-2R = target: T2, human GLP-2R (Homo sapiens, UniProt O95838); test: cAMP assay (HitHunter) in transiently transfected COS-7 cells expressing human GLP-2R
T2 construct: host or cells: COS-7
T2 sequence (O95838 1-553): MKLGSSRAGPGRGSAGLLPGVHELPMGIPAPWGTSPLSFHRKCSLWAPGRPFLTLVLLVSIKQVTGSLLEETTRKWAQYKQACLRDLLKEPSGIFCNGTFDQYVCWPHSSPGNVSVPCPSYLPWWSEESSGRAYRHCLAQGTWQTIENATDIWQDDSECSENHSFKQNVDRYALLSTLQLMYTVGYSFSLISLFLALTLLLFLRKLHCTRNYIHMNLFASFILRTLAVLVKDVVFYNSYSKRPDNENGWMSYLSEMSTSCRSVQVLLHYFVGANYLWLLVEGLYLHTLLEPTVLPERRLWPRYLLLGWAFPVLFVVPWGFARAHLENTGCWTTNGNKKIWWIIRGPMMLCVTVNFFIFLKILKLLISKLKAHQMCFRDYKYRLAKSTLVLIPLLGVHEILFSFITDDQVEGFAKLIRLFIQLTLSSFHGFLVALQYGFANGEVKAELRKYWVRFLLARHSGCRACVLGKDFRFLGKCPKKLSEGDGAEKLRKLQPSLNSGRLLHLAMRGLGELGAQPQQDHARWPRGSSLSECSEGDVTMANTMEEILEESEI
Procedure: The next day the assay was initiated by washing with HEPES buffered saline (HBS) and followed by an incubation step with assay buffer (HBS added 1 mM isobutyl-1-methylxanthine (IBMX)) for 30 min at 37° C. The ligands were then added and incubated for an additional 30 min at 37° C. After ligand incubation, the HitHunter® CAMP assay (Eurofins DiscoverX, Fremont, […] USA) was carried out according to the manufacturer's instructions. […] The potencies (EC50 values) were determined by nonlinear regression using GraphPad Prism 9 (San Diego, California, USA). Sigmoid curves were fitted logistically. The efficacies (Emax values) were determined by normalization to the highest concentration applied of the endogenous ligand for each receptor.

human GIPR = target: T3, human GIPR (Homo sapiens, UniProt P48546); test: cAMP assay (HitHunter) in transiently transfected COS-7 cells expressing human GIPR; conditions: for EC50: cAMP, COS-7 cells, human GIPR
T3 construct: host or cells: COS-7
T3 sequence (P48546 22-466): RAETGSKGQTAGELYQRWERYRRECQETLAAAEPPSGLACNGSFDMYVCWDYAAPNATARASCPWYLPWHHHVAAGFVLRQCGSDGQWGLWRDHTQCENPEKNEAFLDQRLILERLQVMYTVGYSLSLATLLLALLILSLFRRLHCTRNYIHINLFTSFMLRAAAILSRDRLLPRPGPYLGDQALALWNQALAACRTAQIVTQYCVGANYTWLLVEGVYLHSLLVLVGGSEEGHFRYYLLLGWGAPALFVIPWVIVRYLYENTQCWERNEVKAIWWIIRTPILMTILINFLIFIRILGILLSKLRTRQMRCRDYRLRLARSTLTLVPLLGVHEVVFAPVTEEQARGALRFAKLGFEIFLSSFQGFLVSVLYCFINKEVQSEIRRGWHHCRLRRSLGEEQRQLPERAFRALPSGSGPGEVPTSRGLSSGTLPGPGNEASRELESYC

human SNAP-tagged GIPR = target: T4, human SNAP-tagged GIPR (Homo sapiens, UniProt P48546); test: Receptor internalization assay, HEK293A cells expressing human SNAP-tagged GIPR; conditions: for Relative hGIPR internalization (%): relative to hGIP 1-42 = 100; for GIPR internalization (in words): compared to native GIP
T4 construct: host or cells: HEK293A
T4 sequence (P48546 22-466): T3 sequence (P48546 22-466)

[1] = COS-7, normalized to highest concentration of the endogenous ligand, read-out: Efficacy GLP-1R (Emax)
[2] = cAMP, COS-7 cells, human GLP-1R, read-out: EC50 (nM) GLP-1R
[3] = COS-7, normalized to highest concentration of the endogenous ligand, read-out: Efficacy GLP-2R (Emax)
[4] = COS-7, normalized to highest concentration of the endogenous ligand, read-out: Efficacy GIPR (Emax)
[5] = AUC of sigmoid curves up to 1 μM, 60 minutes at 37° C.

Row | Emax (human GLP-1R; [1]) | EC50 (human GLP-1R; [2]) | Emax (human GLP-2R; [3]) | Emax (human GIPR; [4]) | EC50 (human GIPR) | Absolute hGIPR internalization (AUC) (human SNAP-tagged GIPR; [5]) | Relative hGIPR internalization (%) (human SNAP-tagged GIPR) | EC50 (human GLP-1R; cAMP, COS-7 cells, human GLP-1R, read-out: logEC50 GLP-1R (converted)) | EC50 (human GLP-2R; cAMP, COS-7 cells, human GLP-2R, read-out: EC50 (nM) GLP-2R) | Substance | EC50 (human GLP-1R) | Emax (human GLP-1R; COS-7, read-out: Efficacy GLP-1R (Emax)) | Emax (human GLP-2R; COS-7, read-out: Efficacy GLP-2R (Emax)) | Emax (human GIPR; COS-7, read-out: Efficacy GIPR (Emax)) | Absolute hGIPR internalization (AUC) (human SNAP-tagged GIPR) | GIPR internalization (in words) (human SNAP-tagged GIPR)
1 | 113% | 0.05 nM | 91% | 96% | 0.398 nM | 15.0 | 41% |  |  | HADGTFTSDYSTILDKLAARDFINWLIQTKGKK([AEEA-AEEA-γGlu-C18 diacid])NDWKHNITQ-OH [Compound 24] |  |  |  |  |  | 
2 | 115% | 0.05 nM | 85% | 124% |  | 9.0 | 24% |  | 3.2 nM | HADGTFTSDYST[Aib]LDKLAARDFINWLIQTKGKKNDWKHNITQK([AEEA-AEEA-γGlu-C18 diacid])-OH [Compound 27] |  |  |  |  |  | internalization of the GIPR to a higher extent

Continued, substance first:

Row | Substance | Emax (human GLP-1R; [1]) | EC50 (human GLP-1R; [2]) | Emax (human GLP-2R; [3]) | Emax (human GIPR; [4]) | EC50 (human GIPR) | Absolute hGIPR internalization (AUC) (human SNAP-tagged GIPR; [5]) | Relative hGIPR internalization (%) (human SNAP-tagged GIPR) | EC50 (human GLP-1R; cAMP, COS-7 cells, human GLP-1R, read-out: logEC50 GLP-1R (converted)) | EC50 (human GLP-2R; cAMP, COS-7 cells, human GLP-2R, read-out: EC50 (nM) GLP-2R) | EC50 (human GLP-1R) | Emax (human GLP-1R; COS-7, read-out: Efficacy GLP-1R (Emax)) | Emax (human GLP-2R; COS-7, read-out: Efficacy GLP-2R (Emax)) | Emax (human GIPR; COS-7, read-out: Efficacy GIPR (Emax)) | Absolute hGIPR internalization (AUC) (human SNAP-tagged GIPR) | GIPR internalization (in words) (human SNAP-tagged GIPR)
3 | H-HADGTFTSDYSTILDKLAARDFINWLIQTKGKKNDWK([AEEA-AEEA-γGlu-C18 diacid])HNITQ-OH [Compound 25] | 116% | 0.05 nM | 117% | 107% | 0.398 nM | 13.1 | 35% |  |  |  |  |  |  |  | 
4 | HADGTFTSDYSTILDKK([AEEA-AEEA-γGlu-C18 diacid])AARDFINWLIQTKGKKNDWKHNITQ [Compound 23] |  |  |  |  |  |  | 3% |  |  | 0.05 nM | 105% | 95% | 82% | 1.2 | 
5 | HADGTFTSDYSTILDKLAARDFINWLIQTKGKKNDWKHNITQK([AEEA-AEEA-γGlu-C18 diacid])-OH [Compound 26] | 103% |  | 112% | 106% | 0.316 nM | 16.4 | 44% | 0.0398 nM |  |  |  |  |  |  | internalization of the GIPR to a higher extent
